Measured values reported in patent US8946268B2, “Modulators of HEC1 activity and methods therefor” (Taivex Therapeutics, Inc., priority 2010, dated 2015).
“And” between values parts separate entries of the source, which are not always exact repeats. Equal values may be shown once. Read-outs that look alike come from different tables or passages of the source.

What was measured:
[1] = Combination of Hec1 inhibitors with chemotherapeutic inhibitors; conditions: preliminary data
[2] = Pharmacokinetics in rats after oral administration; assay type: in vivo, SD rat; conditions: for MRT inf: read-out: MRT0-inf
Experimental: (§1) Bioavailability: Selected compounds were administered to rats per os or via injection following well known procedures.

[3] = Pharmacokinetics in rats after i.v. injection; assay type: in vivo, SD rat
Experimental: as §1

[4] = test system: MDA-MB-231; experiment: Antiproliferative activity (MTS assay), MDA-MB-231; assay type: cell-based; conditions: Homo sapiens, MDA-MB-231, 96 h, MDA-MB-231 cells
Experimental: (§2) Antiproliferative effect is expressed as IC50 values in microMolar final concentration.
(§3) Cells were grown at 37° C. in a humidified atmosphere with 5% CO2 and 95% air. Cells were seeded in 96 well tissue culture plates.
(§4) Compound treatment started after overnight incubation of cells (TO). […] Compound was added to the plate in triplicate wells, and the plates were then incubated for 96 hours. DMSO (compounds diluents) was also included and added to the plate in control wells. Cell viability was then determined by MTS assay using CellTiter 96® AQueous non-radioactive cell proliferation assay system (Promega). A plate reader (Molecular Devices, Vmax) was used to read the optical densities, and the results were used to deduce concentration-response curves. […] The results were analyzed using linear regression software (GraphPad Prism 5; GraphPad Software Inc.).
(§5) The GI50 values (growth inhibitory activity) were determined to emphasize on the correction for the cell count at time zero; thus, the % inhibition of test drug were: [1−(T−T0)/(C−T0)]×100; and these value were used to plot the concentration-response curves, and then analyzed with linear regression software (GraphPad Prism 5).

[5] = test system: Hela; experiment: Antiproliferative activity (MTS assay), Hela; assay type: cell-based; conditions: Homo sapiens, HeLa, 96 h, Hela cells
Experimental: as §2, §3, §4, §5

[6] = test system: MDA-MB-468; experiment: Antiproliferative activity (MTS assay), MDA-MB-468; assay type: cell-based; conditions: Homo sapiens, MDA-MB-468, 96 h, MDA-MB-468 cells
Experimental: as §2, §3, §4, §5

[7] = test system: K562; experiment: Antiproliferative activity (MTS assay), K562; assay type: cell-based; conditions: Homo sapiens, K562, 96 h, K562 cells
Experimental: as §2, §3, §4, §5

[8] = Sprague-Dawley, rat, serum, po, 20 mg/kg, oral 20 mg/kg, 1% methyl-cellulose, SD rat, Mean
[9] = Sprague-Dawley, rat, serum, po, 20 mg/kg, oral 20 mg/kg, SD rat, individual rats No. 1-3
[10] = oral 20 mg/kg, SD rat, individual rats No. 1-3, 20 mg/kg
[11] = i.v. 2 mg/kg, SD rat, individual rats No. 1-3, 2 mg/kg
[12] = compound 42 oral, SD rat, individual rats No. 1-3
[13] = compound 42 i.v., SD rat, individual rats No. 1-3
[14] = compound 95 oral, SD rat, individual rats No. 1-3
[15] = compound 95 i.v., SD rat, individual rats No. 1-3

Compound	IC50 [4] [nM]	IC50 [5] [nM]	IC50 [6] [nM]	IC50 [7] [nM]	also measured
COc1cccc2c1C(=O)c1c(O)c3c(c(O)c1C2=O)C[C@@](O)(C(=O)CO)C[C@@H]3O[C@H]1C[C@H](N)[C@H](O)[C@H](C)O1 [doxorubicin]					effect in combination of Hec1 inhibitors with chemotherapeutic inhibitors [1]: at most additive effect
Cc1cc(OC(C)C)cc(C)c1-c1csc(NC(=O)c2ccncc2)n1 [Compound 82]					half-life [2, 8]: 4.41 h; MRT inf [2, 8]: 7.73 h; Tmax ([2]; Sprague-Dawley, rat, serum, po, 20 mg/kg, oral 20 mg/kg, 1% methyl-cellulose, SD rat, Mean, read-out: Tmax): 4 h; half-life [2, 9]: 4.53 h; MRT inf [2, 9]: 7.71 h; Tmax ([2]; Sprague-Dawley, rat, serum, po, 20 mg/kg, oral 20 mg/kg, SD rat, individual rats No. 1-3, read-out: Tmax): 4 h; MRT0-inf [2, 10]: 5.76 h and 9.72 h; T1/2 [2, 10]: 2.94 h and 5.76 h; half-life ([3]; Sprague-Dawley, rat, serum, iv, 2 mg/kg, i.v. 2 mg/kg, 5% DMSO, 10% Cremophor, 85% WFI, SD rat, Mean): 5.14 h; C0 ([3]; Sprague-Dawley, rat, serum, iv, 2 mg/kg, i.v. 2 mg/kg, 5% DMSO, 10% Cremophor, 85% WFI, SD rat, Mean, read-out: C0): 7020 ng/mL; MRT inf ([3]; Sprague-Dawley, rat, serum, iv, 2 mg/kg, i.v. 2 mg/kg, 5% DMSO, 10% Cremophor, 85% WFI, SD rat, Mean, read-out: MRT0-inf): 6.46 h; C0 ([3]; Sprague-Dawley, rat, serum, iv, 2 mg/kg, i.v. 2 mg/kg, SD rat, individual rats No. 1-3, read-out: C0): 8180 ng/mL; C0 [3, 11]: 5590 ng/mL and 7282 ng/mL; MRT0-inf [3, 11]: 8.80 h and 3.36 h and 7.22 h; T1/2 [3, 11]: 6.85 h and 2.79 h and 5.78 h
COc1cc(C)c(-c2csc(NC(=O)c3ccncc3)n2)c(C)c1 [Compound 42]					half-life ([2]; Sprague-Dawley, rat, serum, po, 20 mg/kg, compound 42 oral, SD rat, individual rats No. 1-3): 3.28 h; MRT ([2]; Sprague-Dawley, rat, serum, po, 20 mg/kg, compound 42 oral, SD rat, individual rats No. 1-3, read-out: MRT): 3.46 h; Tmax ([2]; Sprague-Dawley, rat, serum, po, 20 mg/kg, compound 42 oral, SD rat, individual rats No. 1-3, read-out: Tmax): 1.5 h; half-life ([2]; Sprague-Dawley, rat, serum, po, 20 mg/kg, compound 42 oral, formulation and route otherwise identical to compound 82, SD rat, Mean): 3.18 h; MRT ([2]; Sprague-Dawley, rat, serum, po, 20 mg/kg, compound 42 oral, formulation and route otherwise identical to compound 82, SD rat, Mean, read-out: MRT): 3.36 h; Tmax ([2]; Sprague-Dawley, rat, serum, po, 20 mg/kg, compound 42 oral, formulation and route otherwise identical to compound 82, SD rat, Mean, read-out: Tmax): 1.33 h; MRT [2, 12]: 3.78 h and 2.83 h; T1/2 [2, 12]: 3.30 h and 2.97 h; Tmax [2, 12]: 1 h; C0 ([3]; Sprague-Dawley, rat, serum, iv, 2 mg/kg, compound 42 i.v., SD rat, individual rats No. 1-3, read-out: C0): 11500 ng/mL; MRT ([3]; Sprague-Dawley, rat, serum, iv, 2 mg/kg, compound 42 i.v., SD rat, individual rats No. 1-3, read-out: MRT): 1.3 h; half-life ([3]; Sprague-Dawley, rat, serum, iv, 2 mg/kg, compound 42 i.v., formulation and route otherwise identical to compound 82, SD rat, Mean): 1.52 h; C0 ([3]; Sprague-Dawley, rat, serum, iv, 2 mg/kg, compound 42 i.v., formulation and route otherwise identical to compound 82, SD rat, Mean, read-out: C0): 11500 ng/mL; MRT ([3]; Sprague-Dawley, rat, serum, iv, 2 mg/kg, compound 42 i.v., formulation and route otherwise identical to compound 82, SD rat, Mean, read-out: MRT): 1.26 h; C0 [3, 13]: 11344 ng/mL and 11625 ng/mL; MRT [3, 13]: 1.20 h and 1.28 h; T1/2 [3, 13]: 1.40 h and 0.99 h and 2.16 h
O=C(Nc1nc(-c2c(F)cc(F)cc2F)cs1)c1ccncc1 [Compound 76]	540	1120	1250	940	
COc1ccc(-c2csc(NC(=O)c3cccnc3)n2)c(OC)c1 [Compound 15]	> 10000	> 10000	> 10000	> 10000	
CC(C)c1cc(C(C)C)c(-c2csc(NC(=O)c3ccncc3)n2)c(C(C)C)c1 [Compound 73]	> 10000	> 10000	> 10000	> 10000	
COc1ccc(-c2csc(NC(=O)c3ccccn3)n2)c(F)c1 [Compound 24]	> 10000	> 10000	> 10000	> 10000	
COc1ccc(-c2csc(NC(=O)c3ccccn3)n2)cc1 [Compound 17]	> 10000	> 10000	> 10000	> 10000	
N#Cc1ccc(C(=O)Nc2nc(-c3ccc(O)cc3)cs2)cc1 [Compound 56]	> 10000	> 10000	> 10000	> 10000	
Cc1cc(O)ccc1-c1csc(NC(=O)c2ccc(C#N)cc2)n1 [Compound 61]	> 10000	> 10000	> 10000	> 10000	
Cc1cc(Sc2ccccc2)cc(C)c1-c1csc(NC(=O)c2ccncc2)n1 [Compound 115]	170	230	220	140	
Cc1cc(C)c(-c2csc(NC(=O)c3ccccn3)n2)c(C)n1 [Compound 45]	> 10000	> 10000	7680	> 10000	
COc1cc(-c2csc(NC(=O)c3ccoc3)n2)ccc1O [Compound 51]	> 10000	> 10000	> 10000	> 10000	
COc1ccc(-c2csc(NC(=O)CCc3ccccc3)n2)c(F)c1 [Compound 23]	> 10000	> 10000	7120	> 10000	
Cc1cc(C)c(-c2csc(NC(=O)c3cc(Cl)nc(Cl)c3)n2)c(C)c1 [Compound 88]	7980	> 10000	15500	8300	
Cc1ccc(-c2csc(NC(=O)c3cccnc3)n2)cc1 [Compound 28]	> 10000	> 10000	> 10000	> 10000	
Cc1cc(C)c(-c2csc(NC(=O)c3ccnc(Cl)c3)n2)c(C)c1 [Compound 64]	620	840	980	930	
COc1ccc(-c2nc(NC(=O)c3ccc(C#N)cc3)sc2C)cc1 [Compound 39]	> 10000	> 10000	> 10000	> 10000	

Further lines, with some results ahead:

IC50 [4] [nM]	IC50 [5] [nM]	IC50 [6] [nM]	IC50 [7] [nM]	Compound	also measured
30	50	40	30	COc1ccc(Oc2cc(C)c(-c3csc(NC(=O)c4ccncc4)n3)c(C)c2)cc1 [Compound 95]	MRT ([2]; SD, rat, serum, po, 20 mg/kg, compound 95 oral, SD rat, individual rats No. 1-3, read-out: MRT): 4.4 h; half-life ([2]; SD, rat, serum, po, compound 95 oral, formulation and route otherwise identical to compound 82, SD rat, Mean): 10.9 h; MRT ([2]; SD, rat, serum, po, compound 95 oral, formulation and route otherwise identical to compound 82, SD rat, Mean, read-out: MRT): 4.24 h; Tmax ([2]; SD, rat, serum, po, compound 95 oral, formulation and route otherwise identical to compound 82, SD rat, Mean, read-out: Tmax): 3 h; half-life ([2]; Sprague-Dawley, rat, serum, po, 20 mg/kg, compound 95 oral, SD rat, individual rats No. 1-3): 9.96 h; MRT [2, 14]: 4.38 h and 3.92 h; T1/2 [2, 14]: 12.86 h and 9.75 h; Tmax [2, 14]: 4.00 h and 1.00 h; MRT ([3]; Sprague-Dawley, rat, serum, iv, 2 mg/kg, compound 95 i.v., SD rat, individual rats No. 1-3, read-out: MRT): 131 h; half-life ([3]; Sprague-Dawley, rat, serum, iv, 2 mg/kg, compound 95 i.v., formulation and route otherwise identical to compound 82, SD rat, Mean): 7.36 h; C0 ([3]; Sprague-Dawley, rat, serum, iv, 2 mg/kg, compound 95 i.v., formulation and route otherwise identical to compound 82, SD rat, Mean, read-out: C0): 3670 ng/mL; MRT ([3]; Sprague-Dawley, rat, serum, iv, 2 mg/kg, compound 95 i.v., formulation and route otherwise identical to compound 82, SD rat, Mean, read-out: MRT): 143 h; C0 [3, 15]: 2519 ng/mL and 3144 ng/mL and 5356 ng/mL; MRT [3, 15]: 189 h and 108 h
90	180	140	80	COc1ccc([S+]([O-])c2cc(C)c(-c3csc(NC(=O)c4ccncc4)n3)c(C)c2)cc1 (stereo not shown) [Compound 130]	
300	230	390	230	Cc1cc(OCC(C)O)cc(C)c1-c1csc(NC(=O)c2ccncc2)n1 (stereo not shown) [Compound 94]	
220	330	530	120	COc1ccc(Oc2cc(C)c(-c3csc(NC(=O)c4ccnc([N+](=O)[O-])c4)n3)c(C)c2)cc1 [Compound 124]	
430	480	480	620	Cc1cc(-c2ccccc2)cc(C)c1-c1csc(NC(=O)c2ccncc2)n1 [Compound 53]	
